The subject of data set [1] is MCCC 1A01390 Pseudomonas pachastrellae. Kind of data set: Biofilm inhibition assay (MTT), marine bacteria. It counts as cell-based. To be noted: lowest concentration inhibiting 90% of biofilm formation; 24 h. On the procedure:
(§1) The ability of the bacteria to form static biofilms was tested. Marine bacteria were cultured overnight in marine broth at 22° C. with 220 rpm agitation (Pseudomonas pachastrellae MCCC 1A01390, Sulfitobacter pontiacus MCCC 1A04899 and Psychrobacter nivimaris MCCC 1A 11723) and at 30° C. (Staphylococcus aureus B04, Staphylococcus sp. Z01 and Micrococcus sp. Z02) and then diluted to 10^7 CFU mL^−1 in marine broth supplemented with 1% of glucose; pathogenic bacteria was cultured overnight in LB broth with 1% glucose with 220 rpm at 37° C. Afterwards, 200 μL of the diluted solution were added to each well of a 96-well plate (Corning Inc., New York, USA) and was then incubated at 22° C. or 30° C. for 24 h. The culture medium, planktonic cells and loosely adhered bacteria were removed by dual washing with a phosphate-buffered saline (PBS) buffer, and the firmly attached bacteria were incubated with 20 μL of MTT (5 mg mL^−1) at 37° C. for 3 h. The supernatant was discarded, and formazan was dissolved in 150 μL of DMSO. Absorbance was measured using the Multiskan™ FC microplate photometer (Thermo Fisher Scientific, Waltham, USA) under 570 nm, and MRSA ATCC 43300 was used as a positive control. All the experiments were performed in triplicate.
(§2) The antibacterial activities of albofungins were tested following specific protocols (She et al., 2020). Marine broth was used as the test medium for the marine bacteria, and the MHB broth was used as the test medium for the pathogenic bacteria. The plate was kept at 22° C. or 30° C. overnight, and the minimum inhibitory concentration (MIC) is the lowest concentration that the drug prevents the visible growth of bacteria. The bacteria which have successfully formed biofilms were further used for antibiofilm formation assays. Different concentrations of albofungin compounds were added to each well. Biofilm formation was assessed through the MTT assay as previously described. […] Data were analyzed using one-way ANOVA to detect significant differences and standard deviation (SD) was calculated using GraphPad Prism 9. All the assays were performed in triplicate.

The test system of data set [2] is MCCC 1A04899 Sulfitobacter pontiacus. In words: Biofilm inhibition assay (MTT), marine bacteria. It counts as cell-based. The note with it: lowest concentration inhibiting 90% of biofilm formation; 24 h. On the procedure:
as §1, §2

The test system of data set [3] is MCCC 1A11723 Psychrobacter nivimaris. Kind of data set: Biofilm inhibition assay (MTT), marine bacteria. The note with it: lowest concentration inhibiting 90% of biofilm formation; 24 h. It counts as cell-based. How it is done: as §1, §2
For data set [4], the system named is Micrococcus sp. Z02. In words: Biofilm inhibition assay (MTT), marine bacteria. It counts as cell-based. To be noted: lowest concentration inhibiting 90% of biofilm formation; 24 h. How it is done: as §1, §2
The test system of data set [5] is Staphylococcus aureus 04. In words: Biofilm inhibition assay (MTT), marine bacteria. It counts as cell-based. The note with it: lowest concentration inhibiting 90% of biofilm formation; 24 h. On the procedure:
as §1, §2

In data set [6] the test system is Staphylococcus sp. Z01. Kind of data set: Biofilm inhibition assay (MTT), marine bacteria. It is filed as cell-based. To be noted: lowest concentration inhibiting 90% of biofilm formation; 24 h. On the procedure: as §1, §2
Data set [7] deals with MCCC 1A01390 Pseudomonas pachastrellae. In words: Bacterial growth inhibition (antibacterial assay, MIC). It is filed as cell-based. The note with it: Halopseudomonas pachastrellae; marine broth, overnight. How it is done:
as §2

Data set [8] deals with MCCC 1A04899 Sulfitobacter pontiacus. The description is as above. It is filed as cell-based. How it is done: as §2
Data set [9] deals with MCCC 1A11723 Psychrobacter nivimaris. The data set is described as above. It is filed as cell-based. To be noted: marine broth, overnight. On the procedure: as §2
Data set [10] relates to Micrococcus sp. Z02. The data set is described as above. It is filed as cell-based. To be noted: marine broth, overnight. How it is done:
as §2

In data set [11] the test system is Staphylococcus aureus 04. The data set is described as above. It counts as cell-based. The note with it: marine broth, overnight. On the procedure: as §2
For data set [12], the system named is Staphylococcus sp. Z01. Described as above. It is filed as cell-based. The note with it: marine broth, overnight. On the procedure: as §2
In data set [13] the test system is MRSA ATCC 43300. In words: Biofilm inhibition assay (MTT), pathogenic bacteria. It counts as cell-based, Staphylococcus aureus. The note with it: lowest concentration inhibiting 90% of biofilm formation. On the procedure:
as §1
as §2, with “All the assays were performed in triplicate.” left out

Data set [14] has as its system Acinetobacter baumannii B-65371. Described as above. The note with it: lowest concentration inhibiting 90% of biofilm formation. It is filed as cell-based. How it is done:
as §1, §2

Data set [15] has as its system Enterobacter cloacae NRRL-B-425. The description is as above. It is filed as cell-based. To be noted: lowest concentration inhibiting 90% of biofilm formation. How it is done: as §1, §2
Data set [16] has as its system Escherichia coli k12. The data set is described as above. The note with it: lowest concentration inhibiting 90% of biofilm formation. It counts as cell-based. On the procedure: as §1, §2
Data set [17] can be described thus: Anti-larval settlement bioassay, barnacle. It is filed as in vivo, Amphibalanus amphitrite. To be noted: Amphibalanus amphitrite (barnacle), cyprid larvae, in vivo; larval mortality, 48 h at 25° C. On the procedure:
(§3) A. amphitrite adults were collected from Pak Sha Wan Pier, Hong Kong (22° 38′N, 114° 28′E) and after keeping in the dark for 24 h, a light source was used to stimulate the larval release. Within 1 h, the larvae were collected and cultured in 0.22 μm filtered seawater with a daily diet of Chaetoceros gracilis Schutt at 1×10^6 cells mL^−1 until their growth into cyprids, which were used for the anti-larval settlement bioassay. The bryozoan B. neritina adults were collected from a fish farm in Pak Shek Kok, Hong Kong (22° 43′N, 114° 20′E) and kept in flow-through seawater for no more than 7 days before use. The larvae were released within 30 minutes before the bioassay as described (Xu et al., 2010). The bioassay was conducted in a 24-well polystyrene tissue culture plate with 15-20 larvae in each well. 0.1% of DMSO in filtered seawater (FSW), and 0.625, 1.25, 2.5, 5, 10, 20, and 40 μg mL^−1 albofungin concentrations were tested in triplicate. In each well, 1 mL of FSW containing 15-20 larvae and 1 mL of albofungin solution of different concentrations. The plate was kept for 48 h at 25° C. (bryozoan B. neritina larvae were kept for 3 h). The wells with 0.1% of DMSO in FSW served as a negative control, and butenolide was used as a positive control. The number of attached, swimming, and dead larvae were counted under an Olympus optical microscope (Olympus Corporation, Tokyo, Japan). The settlement rate was calculated as the ratio of settled larvae to the total number of larvae in each well, and the death rate was calculated as the ratio of dead or missing larvae to the total number of larvae in each well. Half maximal effective concentration (EC50) and half lethal concentration (LC50) were determined for each compound, and the ratio of LC50/EC50 was used to evaluate the toxicity of the antifoulant. Experiments were performed in triplicate. Data were analyzed by one-way ANOVA to detect significant differences in the larval settlement, and SD was calculated by GraphPad Prism 9.

The test system of data set [18] is barnacle Amphibalanus amphitrite larvae. Kind of data set: Anti-larval settlement bioassay, barnacle. To be noted: for EC50: Amphibalanus amphitrite; for settlement rate compared with control group (0.1% DMSO in FSW): after 48 h of incubation. It counts as in vivo. On the procedure: as §3
The mark [19] stands for this setting: larval settlement, 48 h at 25° C., read-out: EC50.

≈ marks a conversion by molar mass, not a printed value. Read-outs that look alike come from different tables or passages of the source.

The MIC is the smallest concentration in the dilution series that meets the test's criterion for growth inhibition. Usually LC50 stands for the concentration that kills 50% of the test population. Low values mean greater toxicity, high ones lower toxicity. By EC50 is commonly meant the midpoint of the concentration-response curve.

In the case of `Cc1cc2cc3c(c(O)c2c(=O)n1N)-c1c2c(c4oc5c(c(=O)c4c1O)[C@@H](O)CC[C@H]5O)OCO[C@@H]2C3` [Albofungin A (2), albofungin A], the MBIC90 was 0.02 to 0.03 µg/mL in data set [1]; 0.02 to 0.03 µg/mL in data set [2]; over 20 µg/mL in data set [3]; 62.5 to 125 ng/mL in data set [4]; 15.63 to 31.25 ng/mL in [5]; 0.63 to 1.25 ng/mL in data set [6]. Further, the MBIC90 was 0.01 to 0.03 µg/mL in data set [13], 0.13 to 0.25 µg/mL in data set [14], 0.63 to 1.25 µg/mL in [15] and 0.31 to 0.63 µg/mL in data set [16]. Moreover, the MIC in [7] is 0.12 µg/mL (≈ 0.237 µM); in data set [8], 0.008 µg/mL (≈ 0.0158 µM); in data set [9], over 20 µg/mL; in data set [10] it was 0.0064 µg/mL (≈ 0.0126 µM); in data set [11], 0.0064 µg/mL (≈ 0.0126 µM); in data set [12] it was 0.0008 µg/mL (≈ 0.00158 µM). The LC50 at 48 h in data set [17] was over 100 µg/mL. In addition, in data set [18] (20 μg mL^−1, 48 h), the larval settlement rate is on record as 17% (±12.7%). Besides, in data set [18] (48 h), the EC50 turned out to be 12.2 µg/mL (≈ 24.1 µM). Also, the “settlement rate compared with control group (0.1% DMSO in FSW)” value (shortened to “settlement rate … (0.1% DMSO in FSW)”) in data set [18] is “significantly lower”. For the same molecule, the LC50/EC50 in data set [18] (ratio used to evaluate toxicity of the antifoulant) is 8.2.
With `CO[C@@H]1CC[C@H](O)c2c1oc1c3c4c(c(O)c1c2=O)-c1c(cc2c(Cl)c(C)n(N)c(=O)c2c1O)C[C@H]4OCO3` [Chloroalbofungin (3), chloroalbofungin], the MBIC90 in data set [1] was over 20 µg/mL; in data set [2], 10 to 20 µg/mL; in data set [3], over 20 µg/mL; in data set [4] it was 250 to 500 ng/mL; in data set [5] it was 250 to 500 ng/mL; in [6], 100 to 200 ng/mL. For the same molecule, the MIC in data set [7] was over 20 µg/mL; in [8], over 20 µg/mL; in [9] it was over 20 µg/mL; in data set [10] it was 0.05 µg/mL (≈ 0.0901 µM); in [11], 0.0125 µg/mL (≈ 0.0225 µM); in data set [12], 0.0016 µg/mL (≈ 0.00288 µM). The molecule further showed an LC50 at 48 h in data set [17] of over 100 µg/mL. The EC50 in data set [18] (setting [19]) was determined as 35 µg/mL (≈ 63.1 µM). Also, in [18], the “settlement rate … (0.1% DMSO in FSW)” value is “did not cause significant difference”.
As to `CO[C@@H]1CC[C@H](O)c2c1oc1c3c4c(c(O)c1c2=O)-c1c(cc2cc(C)[nH]c(=O)c2c1O)C[C@H]4OCO3` [Chrestoxanthone A (4), chrestoxanthone A], the MBIC90 was over 20 µg/mL in data set [1]; 10 to 20 µg/mL in data set [2]; over 20 µg/mL in data set [3]; 125 to 250 ng/mL in data set [4]; 62.5 to 125 ng/mL in data set [5]; 5 to 10 ng/mL in data set [6]. Besides, the figures for the MBIC90 in data set [13], in data set [14] and in [15] were 0.13 to 0.25 µg/mL, 1.25 to 2.5 µg/mL and over 10 µg/mL, respectively. Further, the MIC was over 20 µg/mL in data set [7]; 20 µg/mL (≈ 39.6 µM) in [8] (marine broth, overnight, read-out: MIC); over 20 µg/mL in [9]; 0.0125 µg/mL (≈ 0.0247 µM) in data set [10]; 0.0125 µg/mL (≈ 0.0247 µM) in data set [11]; 0.0016 µg/mL (≈ 0.00317 µM) in data set [12]. In data set [17], this molecule registered an LC50 at 48 h of over 100 µg/mL. Moreover, the EC50 in data set [18] (setting [19]) was over 36.8 µg/mL. Besides, the “settlement rate … (0.1% DMSO in FSW)” value in [18] is given as “did not cause significant difference”.
